Data on four compounds can be found in patent US20220369641A1, “MOLECULAR COMPLEXES” (priority 2019, published 2022).

Series [1] is described as follows: Thermodynamic (aqueous) solubility, 24 hours at 25° C., HPLC quantitation. It counts as physicochemical. To be noted: for solubility thermodynamic at 24 h: thermodynamic from solid. As to the method:
The suspension was equilibrated at 25° C., on a Heidolph plate shaker set to 750 rpm for 24 hours. The pH of the sample solutions was periodically checked and, if required, adjusted with 0.2M NaOH to ensure that the desired pH was maintained (±0.05) throughout. The pH of the saturated solution after this time was measured and the suspension filtered through a glass fibre C filter (particle retention 1.2 μm) and diluted appropriately.
Quantitation was by HPLC with reference to a standard solution of approximately 0.15 mg/ml in 1:1 MeCN/H2O. Different volumes of the standard, diluted and undiluted sample solutions were injected.
Different volumes of the standard, diluted and undiluted sample solutions were injected. The solubility was calculated using the peak areas determined by integration of the peak found at the same retention time as the principal peak in the standard injection.
Analysis was performed on an Agilent HP1100 series system equipped with a diode array detector and using ChemStation software.

Series [2] is described as follows: Intrinsic dissolution rate (IDR), Sirius inForm, compressed discs. The format is physicochemical. To be noted: 37° C., pH 5.0 media, 1 hour, 6 mm disc. As for the experimental part: IDR Method Ca. 40 mg material was compressed under 100 kg for 2 minutes to form non-disintegrating discs. The discs were then plugged with a bung so that only one surface was exposed to the media during analysis, and transferred to the dissolution apparatus (Sirius inForm). The volume of the assay was 40 ml and a stir speed of 225 rpm was used. Analysis was performed at 37° C. in pH 5.0 media for 1 hour with UV spectra collected every 30 seconds, using a 20 mm path length probe.

The mark [3] stands for this setting: Media DI Water, pH 7.8, 25° C., 24 hours, final pH 5.24-5.42.

Converted amounts (≈) assume the structure as drawn.

Usually solubility (thermodynamic) stands for the concentration in solution at equilibrium with solid.

As for `COc1c(Cl)ccc(Cl)c1C(=O)O` [Dicamba freeform, 3,6-Dichloro-2-methoxybenzoic acid], in series [1] (pH 4.0 acetic acid/sodium acetate media, aqueous buffer, pH 4.0 media (42.4 ml 0.1 M acetic acid mixed with 7.6 ml 0.1 M sodium acetate), 25° C., 24 hours, read-out: Thermodynamic solubility of second component), the thermodynamic solubility at 24 h is more than 13800 µg/mL.

In the case of `Nc1c(Cl)c(F)nc(OCC(=O)O)c1Cl` [Fluroxypyr freeform, Fluroxypyr], the “IDR of second component” value in series [2] turned out to be 956.9 μg/min/cm^2. This compound had a thermodynamic solubility at 24 h in series [1] (25 °C, pH 4.04, water) of 290 µg/mL (≈ 1140 µM).

Take `CCc1cc(C)cc(CC)c1-c1c(OC(=O)C(C)(C)C)n2n(c1=O)CCOCC2` [Pinoxaden freeform, [8-(2,6-diethyl-4-methylphenyl)-7-oxo-1,2,4,5-tetrahydropyrazolo[1,2-d][1,4,5]oxadiazepin-9-yl] 2,2-dimethylpropanoate]: the “IDR of pinoxaden component” value in series [2] was 69.4 μg/min/cm^2. For the same compound, the solubility (thermodynamic) at 24 h in series [1] (aqueous buffer, pH 4.0 media (42.4 ml 0.1 M acetic acid mixed with 7.6 ml 0.1 M sodium acetate), 25° C., 24 hours, read-out: Thermodynamic solubility of pinoxaden component) was 280 µg/mL (≈ 699 µM); in series [1] (Media DI Water, 25° C., 24 hours, final pH 3.97-4.10, read-out: Thermodynamic solubility of pinoxaden component), approximately 230 µg/mL (≈ 574 µM).

On to “Pinoxaden:2,4-D (1:1) Molecular Complex [Example 3]”, for which, in series [1] (setting [3]), the “Thermodynamic solubility of pinoxaden component” value turned out to be 200 µg/mL and the “Thermodynamic solubility of second component” value is 120 µg/mL.
